# Measurements reported in PMC4827351 (Chemical Science, 2015).
# What was measured:
# E. coli ATCC 25922 = assay: SEM analysis of bacterial agglutination; assay type: cell-based, Escherichia coli; settings: 3 µM proHD6 treated with trypsin before incubation (trypsin inactivated with APMSF), 30 min, 50 mM Tris-maleate pH 6.4
# Description: Fig. 3 TEM analysis of HD6 self-assembly and SEM analysis of bacterial agglutination. Top row: transmission electron micrographs of 10 mM sodium phosphate pH 7.4 (control), 0.4 μM trypsin (control), 20 μM proHD6 in the absence and presence of 0.4 μM trypsin, and 20 μM HD6. All the samples were incubated at room temperature for 1 h. Scale bar = 100 nm. TEM images obtained using 10 mM Tris-maleate pH 6.4 are presented in Fig. S7. ^† Middle row: scanning electron micrographs of E. coli ATCC 25922 treated with 50 mM Tris-maleate pH 6.4 (control), 0.4 μM APMSF-inactivated trypsin (control), 3 μM proHD6, 3 μM trypsin-cleaved proHD6, or 3 μM HD6. Trypsin-cleaved proHD6 was prepared prior to incubation with the bacteria and the residual enzymatic activity was inhibited by APMSF (Experimental section). Following a 30 min incubation, the bacterial suspensions were centrifuged, fixed, and analyzed by SEM. Scale bar = 20 μm. Bottom row: SEM of L. monocytogenes ATCC19115 treated under the same conditions as in the middle row. Scale bar = 20 μm.
# Bacteria were grown aerobically at 37 °C overnight in LB media. The next morning the strains were subcultured and grown to mid-logarithmic phase in LB media. […]
# [1] = Sedimentation velocity analytical ultracentrifugation; assay type: physicochemical; settings: SV-AUC; for s20,w: 42 000 rpm, 20 °C, A280, DCDT+; for MW (best-fit molecular mass) / D: DCDT+
# Description: The experiments were set up as previously reported.[15] In one set of experiments, 10× concentrated proHD6 solutions in Milli-Q water (≈40 μL) were transferred to microcentrifuge tubes and lyophilized to dryness. […] The pH of each solution was measured to confirm that it remained unchanged. The samples were centrifuged at 42 000 rpm and 20 °C until sedimentation was complete. The absorption wavelength for optical detection was 280 nm. All SV experiments were conducted with at least two independently prepared and purified samples of each peptide and in at least two independent trials.
# Additional SV experiments were conducted to evaluate the effect of buffer components on the sedimentation of proHD6. In all cases, the proHD6 samples (400 μL) were prepared as described above except that proHD6 was dissolved in 10 mM Tris–HCl or HEPES pH 7.4 to obtain a final peptide concentration of 50 μM.
# The experimental sedimentation coefficients were calculated by fitting the time derivative of the sedimentation velocity (–dc/dt) data using DCDT+.[29],[54] The –dc/dt distribution was generated from 22 to 28 scans with a peak broadening limit of 40 kDa by using DCDT+.
# Table S4. Calculated sedimentation coefficients of proHD6.a
# Concentration Buffer pH s20,w (S) D (F) MW (kDa) Partial Specific
# (µM) (10 mM) Volume (mL/g) […]
# a All samples were prepared in the indicated buffer; NaP is sodium phosphate. The temperature was 20 °C. Data were obtained by analysis with the dc/dt method implemented in DCDT+ using 22- 28 scans with 40 kDa diffusion broadening maximum. Sedimentation coefficients are s20,w values, adjusted with a solvent density (ρ) of 0.99967 g/mL and a solvent viscosity (η) of 1.0061 cP. Viscosity units are in centipoise (cP) (1 poise = 1 gŸ[…]cm-1Ÿ[…]s-1). Sedimentation coefficients are in svedbergs (1 svedberg = 100 fs = 1 x 10-13 s). Diffusion coefficients correspond to the best-fit molecular mass in Fick units (1 Fick = 1 x 10-7 cm2/s). HEPES has a solvent density (ρ) of 0.99901 g/mL and a solvent viscosity (η) of 1.0104 cP at 20 °C. Tris-HCl has a solvent density (ρ) of 0.99851 g/mL and a solvent viscosity (η) of 1.0037 cP at 20 °C. The solvent densities, viscosities, and the partial specific volume values of proHD6 monomer and dimer were […]
# [2] = proHD6 30 µM, 10 mM NaP pH 7.4, first 30 µM line
# [3] = proHD6 30 µM, 10 mM NaP pH 7.4, second 30 µM line
# [4] = proHD6 30 µM, 10 mM NaP pH 7.4, third 30 µM line
# [5] = proHD6 50 µM, 10 mM HEPES pH 7.4
# [6] = proHD6 50 µM, 10 mM NaP pH 7.4, first 50 µM line
# [7] = proHD6 50 µM, 10 mM NaP pH 7.4, second 50 µM line
# [8] = proHD6 50 µM, 10 mM Tris-HCl pH 7.4
# [9] = proHD6 100 µM, 10 mM NaP pH 7.4
# [10] = proHD6 120 µM, 10 mM NaP pH 7.4
# [11] = proHD6 140 µM, 10 mM NaP pH 7.4
sequence,measurement,setting,value
"EPLQAEDDPLQAKAYEADAQEQRGANDQDFAVSFAEDASSSLRALGSTRAFTCHCRRSCYSTEYSYGTCTVMGINHRFCCL (disulfide (positions not given here)) [proHD6, 81-residue propeptide of human α-defensin 6, recombinant, from His6-SUMO-proHD6]","bacterial agglutination (SEM), trypsin-cleaved",E. coli ATCC 25922,entangled and agglutinated E. coli
same,"s20,w",[1]; [2],1.727 S
same,"s20,w",[1]; [3],1.798 S
same,"s20,w",[1]; [4],1.733 S
same,"s20,w",[1]; [5],1.763 S
same,"s20,w",[1]; [6],1.844 S
same,"s20,w",[1]; [7],1.865 S
same,"s20,w",[1]; [8],1.783 S
same,"s20,w",[1]; [9],1.843 S
same,"s20,w",[1]; [10],1.769 S
same,"s20,w",[1]; [11],1.751 S
same,MW (best-fit molecular mass),[1]; [2],14.3 kDa
same,D,"[1]; proHD6 30 µM, 10 mM NaP pH 7.4, first 30 µM line, 1 Fick = 1 x 10-7 cm2/s",9.83 F
same,D,[1]; [3],11.5 F
same,MW (best-fit molecular mass),[1]; [3],12.8 kDa
same,D,[1]; [4],9.73 F
same,MW (best-fit molecular mass),[1]; [4],14.5 kDa
same,D,[1]; [5],9.94 F
same,MW (best-fit molecular mass),[1]; [5],14.4 kDa
same,D,[1]; [6],10.4 F
same,MW (best-fit molecular mass),[1]; [6],14.4 kDa
same,D,[1]; [7],10.3 F
same,MW (best-fit molecular mass),[1]; [7],14.8 kDa
same,D,[1]; [8],8.97 F
same,MW (best-fit molecular mass),[1]; [8],16.1 kDa
same,D,[1]; [9],13.8 F
same,MW (best-fit molecular mass),[1]; [9],10.9 kDa
same,D,[1]; [10],9.16 F
same,MW (best-fit molecular mass),[1]; [10],15.7 kDa
same,D,[1]; [11],9.47 F
same,MW (best-fit molecular mass),[1]; [11],15.0 kDa
